The text below walks through data of ChEMBL document CHEMBL3098038, “Verrulactone C with an unprecedented dispiro skeleton, a new inhibitor of Staphylococcus aureus enoyl-ACP reductase, from Penicillium verruculosum F375” (Bioorg Med Chem Lett, 2014).

Converted amounts (≈) assume the structure as drawn. The source made the active and inactive calls. The calls are words filed in the database; no cut-off is given here.

The subject of one assay is Bacillus cereus. Description: Antibacterial activity against Bacillus cereus KCTC 1661. Type of assay: functional.
The test system of assay [1] is Staphylococcus aureus. Description: Inhibition of Staphylococcus aureus FabG using acetoacetyl-CoA as substrate assessed as NADPH level at 300 uM by ELISA.
The test system of assay [2] is Staphylococcus aureus. Description: Antibacterial activity against methicillin-resistant Staphylococcus aureus CCARM 3167. Type of assay: functional.
Assay [3] deals with Staphylococcus aureus. Description: Antibacterial activity against quinolone-resistant Staphylococcus aureus CCARM 3505. The assay is classed as functional.
The test system of assay [4] is Staphylococcus aureus. Description: Antibacterial activity against Staphylococcus aureus RN4220. The assay is classed as functional.
The nature of assay [5]: (§1) Inhibition of Staphylococcus aureus FabI-mediated trans-2-octenoyl N-acetylcysteamine reduction assessed as NADPH level by ELISA. For orientation: ELISA stands for enzyme-linked immunosorbent assay.
In assay [6] the test system is Staphylococcus aureus. The description is as §1.

Regarding `COc1cc(O)c2c(=O)oc3cc(O)c(O)cc3c2c1`, the minimum inhibitory concentration (MIC) against Bacillus cereus, in the assay on Staphylococcus aureus [2], against Staphylococcus aureus [3] and in the assay with Staphylococcus aureus [4] was 8 µg/mL (≈ 29.2 µM) each time. Besides, the inhibition result in the assay with Staphylococcus aureus [1] was “inactive”. Further, the IC50 (in general, the midpoint of a concentration-inhibition curve) in assay [5] stood at 85.4 µM. In the assay on Staphylococcus aureus [6], the inhibition result is “Dose-dependent effect”.

Regarding `COc1cc(O)c2c(c1)[C@@]1(OC2=O)C(C)=CC(=O)[C@]12C(=O)c1c(O)c(O)cc3oc(=O)c4c(O)cc(OC)c2c4c13` (relative stereo), the MIC with Bacillus cereus, with Staphylococcus aureus [2], against Staphylococcus aureus [3] and against Staphylococcus aureus [4] was 32 µg/mL (≈ 57.3 µM) throughout. For the same compound, the inhibition entry in the assay on Staphylococcus aureus [1] was “inactive”. For the same compound, the IC50 in assay [5] stood at 16.1 µM. In addition, the inhibition entry with Staphylococcus aureus [6] was “Dose-dependent effect”.

Take `Oc1cc(Cl)ccc1Oc1ccc(Cl)cc1Cl` [TRICLOSAN]: the MIC with Bacillus cereus, against Staphylococcus aureus [2], in the assay with Staphylococcus aureus [3] and against Staphylococcus aureus [4] was 0.01 µg/mL (≈ 0.0345 µM) throughout.

Turning to `COc1cc(O)c2c(=O)oc3cc(O)c(O)c(-c4c(O)c(O)cc5oc(=O)c6c(O)cc(OC)cc6c45)c3c2c1` [VERRULACTONE A], the MIC with Bacillus cereus, against Staphylococcus aureus [2], with Staphylococcus aureus [3] and with Staphylococcus aureus [4] was 8 µg/mL (≈ 14.6 µM) each time. The IC50 in assay [5] was determined as 0.92 µM.

Consider `COc1cc(O)c2c(=O)oc3c(-c4c(O)c(O)cc5oc(=O)c6c(O)cc(OC)cc6c45)c(O)c(O)cc3c2c1` [VERRULACTONE B], for which the MIC with Bacillus cereus, in the assay with Staphylococcus aureus [2], against Staphylococcus aureus [3] and in the assay with Staphylococcus aureus [4] was 8 µg/mL (≈ 14.6 µM) each time. For the same compound, in assay [5], the IC50 worked out at 1.41 µM.
